According to ChEMBL document CHEMBL1201862, “PubChem BioAssay data set” (2004):
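All cell lines were grown in 96-well plates and treated with compound for 48 hours. GI50 marks 50% less growth.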 Active and inactive are the calls of the source. Rule as the data show it: active = GI50 up to about 1.1 µM and inactive = higher.

Columns and labels:
Assay in all cases: NCI tumour cell line growth inhibition, 48 h
SK-OV-3 = system: SK-OV-3
SK-MEL-2 = system: SK-MEL-2
HCC 2998 = system: HCC 2998
K562 = system: K562
IGROV-1 = system: IGROV-1
U-251 = system: U-251
OVCAR-3 = system: OVCAR-3
ACHN = system: ACHN
UO-31 = system: UO-31
SR = system: SR
UACC-62 = system: UACC-62
HOP-92 = system: HOP-92
CAKI-1 = system: CAKI-1
SF-268 = system: SF-268
786-0 = system: 786-0
NCI-H226 = system: NCI-H226
RPMI-8226 = system: RPMI-8226

SMILES	GI50 (SK-OV-3)	GI50 (SK-MEL-2)	GI50 (HCC 2998)	GI50 (K562)	GI50 (IGROV-1)	GI50 (U-251)	GI50 (OVCAR-3)	GI50 (ACHN)	GI50 (UO-31)	GI50 (SR)	GI50 (UACC-62)	GI50 (HOP-92)	GI50 (CAKI-1)	GI50 (SF-268)	GI50 (786-0)	GI50 (NCI-H226)	GI50 (RPMI-8226)
CC1OC=CC(=O)C1O (stereo not drawn)	> 100 µM (inactive)	> 100 µM (inactive)	> 100 µM (inactive)	> 100 µM (inactive)	> 100 µM (inactive)	> 100 µM (inactive)	> 100 µM (inactive)	> 100 µM (inactive)	> 100 µM (inactive)	> 100 µM (inactive)	> 100 µM (inactive)	> 100 µM (inactive)	–	–	–	–	–
CCOC(=O)C1=C(Nc2ccc(Cl)cc2Cl)OC/C1=N\NS(=O)(=O)c1ccc(C)cc1	> 100 µM (inactive)	> 100 µM (inactive)	> 100 µM (inactive)	> 100 µM (inactive)	> 100 µM (inactive)	> 100 µM (inactive)	41.2 µM (inactive)	> 100 µM (inactive)	> 100 µM (inactive)	> 100 µM (inactive)	92.9 µM (inactive)	> 100 µM (inactive)	> 100 µM (inactive)	> 100 µM (inactive)	> 100 µM (inactive)	> 100 µM (inactive)	–
N#CCCc1nc2ccc(Br)cc2c(=O)n1-c1ccc(O)c([N+](=O)[O-])c1	38.5 µM (inactive)	18.6 µM (inactive)	18.6 µM (inactive)	23.9 µM (inactive)	20.6 µM (inactive)	> 10 µM (inactive)	18.7 µM (inactive)	30.3 µM (inactive)	25.6 µM (inactive)	–	18.9 µM (inactive)	25.4 µM (inactive)	32.9 µM (inactive)	24.1 µM (inactive)	19.3 µM (inactive)	19.9 µM (inactive)	17.3 µM (inactive)
CS/C(=N\C(=S)N(C)C)N(c1ccccc1)c1nc(N(C)C)s[s+]1	41.3 µM (inactive)	5.52 µM (inactive)	11.9 µM (inactive)	2.56 µM (inactive)	77.3 µM (inactive)	6.84 µM (inactive)	10.8 µM (inactive)	23.8 µM (inactive)	27.9 µM (inactive)	3.98 µM (inactive)	4.88 µM (inactive)	20.9 µM (inactive)	29 µM (inactive)	12.1 µM (inactive)	16.4 µM (inactive)	–	1.84 µM (inactive)
CC1(c2cc3c(cc2Br)OCO3)SCCCS1	> 100 µM (inactive)	26.2 µM (inactive)	16.4 µM (inactive)	31 µM (inactive)	> 100 µM (inactive)	33 µM (inactive)	38.4 µM (inactive)	41.4 µM (inactive)	24.2 µM (inactive)	–	50.6 µM (inactive)	17.7 µM (inactive)	–	44.6 µM (inactive)	44.3 µM (inactive)	32.4 µM (inactive)	27.4 µM (inactive)
O=C(O)COc1ccccc1C(=O)Nc1ccccc1	> 100 µM (inactive)	> 100 µM (inactive)	–	> 100 µM (inactive)	> 100 µM (inactive)	> 100 µM (inactive)	> 100 µM (inactive)	> 100 µM (inactive)	> 100 µM (inactive)	> 100 µM (inactive)	> 100 µM (inactive)	> 100 µM (inactive)	> 100 µM (inactive)	> 100 µM (inactive)	> 100 µM (inactive)	> 100 µM (inactive)	> 100 µM (inactive)
CN(C)/N=C(\CCN1CCCC1)CC(c1ccccc1)c1c(O)c2ccccc2oc1=O (stereo not drawn)	> 100 µM (inactive)	> 100 µM (inactive)	> 100 µM (inactive)	> 100 µM (inactive)	> 100 µM (inactive)	–	> 100 µM (inactive)	> 100 µM (inactive)	–	–	> 100 µM (inactive)	> 100 µM (inactive)	> 100 µM (inactive)	> 100 µM (inactive)	> 100 µM (inactive)	> 100 µM (inactive)	> 100 µM (inactive)
CCc1ccccc1NC(=O)CCc1n[nH]c(=S)o1	> 100 µM (inactive)	–	> 100 µM (inactive)	> 100 µM (inactive)	> 100 µM (inactive)	> 100 µM (inactive)	> 100 µM (inactive)	> 100 µM (inactive)	> 100 µM (inactive)	–	> 100 µM (inactive)	> 100 µM (inactive)	> 100 µM (inactive)	> 100 µM (inactive)	> 100 µM (inactive)	> 100 µM (inactive)	98.9 µM (inactive)
Cc1cccc(C(C)(C)C)c1NC(=O)CCc1nnc(S)[nH]1	> 100 µM (inactive)	> 100 µM (inactive)	> 100 µM (inactive)	> 100 µM (inactive)	> 100 µM (inactive)	> 100 µM (inactive)	> 100 µM (inactive)	> 100 µM (inactive)	> 100 µM (inactive)	–	> 100 µM (inactive)	> 100 µM (inactive)	> 100 µM (inactive)	> 100 µM (inactive)	> 100 µM (inactive)	> 100 µM (inactive)	> 100 µM (inactive)
C#Cc1c(C)c(/C=C/C(C)=C/C=C/C(C)=C/C(=O)OC)n(C)c1C	0.428 µM (active)	> 100 µM (inactive)	–	> 100 µM (inactive)	> 100 µM (inactive)	> 100 µM (inactive)	> 100 µM (inactive)	> 100 µM (inactive)	> 100 µM (inactive)	> 100 µM (inactive)	62.5 µM (inactive)	> 100 µM (inactive)	> 100 µM (inactive)	> 100 µM (inactive)	> 100 µM (inactive)	–	> 100 µM (inactive)
COC(=O)/C(C#N)=C1\NN=NN1CCCc1ccccc1	> 100 µM (inactive)	–	> 100 µM (inactive)	> 100 µM (inactive)	> 100 µM (inactive)	> 100 µM (inactive)	> 100 µM (inactive)	> 100 µM (inactive)	76.4 µM (inactive)	–	> 100 µM (inactive)	> 100 µM (inactive)	> 100 µM (inactive)	–	> 100 µM (inactive)	> 100 µM (inactive)	> 100 µM (inactive)
CCOC(=O)C1=C(C)N(NC(N)=O)C(C)(O)C12CCOC2=O (stereo not drawn)	> 100 µM (inactive)	> 100 µM (inactive)	> 100 µM (inactive)	> 100 µM (inactive)	> 100 µM (inactive)	> 100 µM (inactive)	> 100 µM (inactive)	> 100 µM (inactive)	> 100 µM (inactive)	> 100 µM (inactive)	> 100 µM (inactive)	–	> 100 µM (inactive)	> 100 µM (inactive)	> 100 µM (inactive)	> 100 µM (inactive)	> 100 µM (inactive)
CCCCCCCCOC(CO)CO	> 100 µM (inactive)	–	> 100 µM (inactive)	> 100 µM (inactive)	> 100 µM (inactive)	> 100 µM (inactive)	> 100 µM (inactive)	> 100 µM (inactive)	> 100 µM (inactive)	> 100 µM (inactive)	> 100 µM (inactive)	44.6 µM (inactive)	> 100 µM (inactive)	> 100 µM (inactive)	> 100 µM (inactive)	> 100 µM (inactive)	> 100 µM (inactive)
COC1/C(=C\c2ccccc2I)c2ccccc2N1C(C)=O (stereo not drawn)	–	17.5 µM (inactive)	16 µM (inactive)	15.6 µM (inactive)	18.1 µM (inactive)	18.6 µM (inactive)	16.6 µM (inactive)	19.5 µM (inactive)	2.48 µM (inactive)	14.4 µM (inactive)	13 µM (inactive)	2.2 µM (inactive)	17.1 µM (inactive)	–	18.1 µM (inactive)	–	8.87 µM (inactive)
O=c1nc(-c2ccccc2)scc1-c1ccccc1	> 100 µM (inactive)	> 100 µM (inactive)	–	> 100 µM (inactive)	> 100 µM (inactive)	98.6 µM (inactive)	> 100 µM (inactive)	> 100 µM (inactive)	> 100 µM (inactive)	> 100 µM (inactive)	35.5 µM (inactive)	67.9 µM (inactive)	> 100 µM (inactive)	86.3 µM (inactive)	78.3 µM (inactive)	> 100 µM (inactive)	> 100 µM (inactive)
CC(NC1CCCC[C@@H]1O)c1ccccc1 (stereo partly drawn)	> 100 µM (inactive)	> 100 µM (inactive)	> 100 µM (inactive)	> 100 µM (inactive)	> 100 µM (inactive)	> 100 µM (inactive)	> 100 µM (inactive)	> 100 µM (inactive)	> 100 µM (inactive)	–	> 100 µM (inactive)	> 100 µM (inactive)	55.3 µM (inactive)	–	> 100 µM (inactive)	> 100 µM (inactive)	> 100 µM (inactive)
COC(=O)C1CCC[C@H]2C(CO)=C(C)C(=O)[C@@H]12 (stereo partly drawn)	> 100 µM (inactive)	> 100 µM (inactive)	> 100 µM (inactive)	> 100 µM (inactive)	> 100 µM (inactive)	> 100 µM (inactive)	–	> 100 µM (inactive)	> 100 µM (inactive)	> 100 µM (inactive)	> 100 µM (inactive)	> 100 µM (inactive)	> 100 µM (inactive)	> 100 µM (inactive)	> 100 µM (inactive)	> 100 µM (inactive)	> 100 µM (inactive)
Cc1nc2c(o1)/C(=N\c1ccccc1)c1ccccc1/C2=N/c1ccccc1	> 100 µM (inactive)	61.9 µM (inactive)	> 100 µM (inactive)	33.8 µM (inactive)	> 100 µM (inactive)	79.3 µM (inactive)	26.6 µM (inactive)	53.6 µM (inactive)	73.6 µM (inactive)	–	> 100 µM (inactive)	49.2 µM (inactive)	> 100 µM (inactive)	> 100 µM (inactive)	45.1 µM (inactive)	–	47 µM (inactive)
